In BindingDB's records for doi:10.7270/Q27D2X8F (n/a, 1993) one finds IC50 data, which are given here for five compounds.

The structures appear in SMILES notation.

For assay [1], the target named is T1, 5-hydroxytryptamine receptor 1A (Homo sapiens, UniProt P08908).
T1 sequence (P08908 whole entry): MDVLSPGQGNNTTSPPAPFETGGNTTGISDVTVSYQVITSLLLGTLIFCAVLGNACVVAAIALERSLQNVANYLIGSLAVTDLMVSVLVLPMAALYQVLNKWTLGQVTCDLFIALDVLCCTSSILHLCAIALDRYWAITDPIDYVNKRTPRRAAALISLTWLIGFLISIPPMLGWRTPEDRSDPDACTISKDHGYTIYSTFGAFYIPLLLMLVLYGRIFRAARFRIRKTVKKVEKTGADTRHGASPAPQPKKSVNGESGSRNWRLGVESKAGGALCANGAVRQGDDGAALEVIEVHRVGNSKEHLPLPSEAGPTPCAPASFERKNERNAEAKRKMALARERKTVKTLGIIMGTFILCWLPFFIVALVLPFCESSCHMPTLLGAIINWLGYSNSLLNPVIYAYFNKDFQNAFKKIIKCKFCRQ
The assay can be described thus: The compound was evaluated for its ability to displace [3H]-8-OH-DPAT from 5-hydroxytryptamine 1A receptor in cellular brain membranes.

In assay [2] the target is 5-hydroxytryptamine receptor 1B (Homo sapiens, UniProt P28222). In words: The compound was evaluated for its ability to displace [3H]5-HT from 5-hydroxytryptamine 1B receptor in cellular brain membranes.
Sequence of 5-hydroxytryptamine receptor 1B (P28222 whole entry): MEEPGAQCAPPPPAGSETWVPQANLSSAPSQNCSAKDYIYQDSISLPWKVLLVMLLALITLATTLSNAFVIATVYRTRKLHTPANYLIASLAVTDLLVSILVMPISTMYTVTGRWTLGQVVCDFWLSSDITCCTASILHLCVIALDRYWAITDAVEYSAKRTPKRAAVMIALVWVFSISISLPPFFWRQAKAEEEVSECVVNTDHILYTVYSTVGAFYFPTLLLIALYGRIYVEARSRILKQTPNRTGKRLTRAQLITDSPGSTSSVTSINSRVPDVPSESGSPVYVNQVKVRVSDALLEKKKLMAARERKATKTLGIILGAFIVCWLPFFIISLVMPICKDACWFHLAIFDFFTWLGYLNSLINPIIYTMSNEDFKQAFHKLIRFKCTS
Assay [3] addresses Serotonin 2 (5-HT2) receptor (Homo sapiens, UniProt P28223+P28335+P41595). The assay can be described thus: The compound was evaluated for its ability to displace [3H]ketanserin from 5-hydroxytryptamine 2 receptor in cellular brain membranes.

Sequence of Serotonin 2 (5-HT2) receptor (P28223 whole entry): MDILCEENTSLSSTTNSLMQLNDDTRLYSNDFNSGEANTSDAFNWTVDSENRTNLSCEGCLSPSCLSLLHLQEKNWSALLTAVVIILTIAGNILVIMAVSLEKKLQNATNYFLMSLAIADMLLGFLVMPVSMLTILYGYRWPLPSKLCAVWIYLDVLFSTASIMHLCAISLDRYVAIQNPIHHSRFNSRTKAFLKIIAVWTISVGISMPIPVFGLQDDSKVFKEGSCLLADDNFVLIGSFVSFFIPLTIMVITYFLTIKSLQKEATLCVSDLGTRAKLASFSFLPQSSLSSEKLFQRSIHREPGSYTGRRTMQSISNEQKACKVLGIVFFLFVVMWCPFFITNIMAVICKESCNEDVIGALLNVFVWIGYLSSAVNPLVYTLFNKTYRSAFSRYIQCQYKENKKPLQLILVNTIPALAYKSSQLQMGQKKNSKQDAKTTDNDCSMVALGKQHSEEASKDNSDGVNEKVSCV
Sequence of Serotonin 2 (5-HT2) receptor (P41595 whole entry): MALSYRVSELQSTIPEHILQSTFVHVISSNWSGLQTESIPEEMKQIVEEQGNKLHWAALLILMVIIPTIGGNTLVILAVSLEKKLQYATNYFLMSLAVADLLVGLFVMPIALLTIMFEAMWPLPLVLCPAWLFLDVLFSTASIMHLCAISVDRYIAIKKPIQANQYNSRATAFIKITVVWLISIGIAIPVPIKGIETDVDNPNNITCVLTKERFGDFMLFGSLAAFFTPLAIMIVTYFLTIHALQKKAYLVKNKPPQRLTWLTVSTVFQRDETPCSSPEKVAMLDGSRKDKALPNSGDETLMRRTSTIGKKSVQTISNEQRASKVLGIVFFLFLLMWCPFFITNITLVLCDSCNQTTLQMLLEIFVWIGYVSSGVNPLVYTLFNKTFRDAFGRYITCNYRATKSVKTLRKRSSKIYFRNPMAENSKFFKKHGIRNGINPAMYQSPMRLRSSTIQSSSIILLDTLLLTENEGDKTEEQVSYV
Sequence of Serotonin 2 (5-HT2) receptor (P28335 whole entry): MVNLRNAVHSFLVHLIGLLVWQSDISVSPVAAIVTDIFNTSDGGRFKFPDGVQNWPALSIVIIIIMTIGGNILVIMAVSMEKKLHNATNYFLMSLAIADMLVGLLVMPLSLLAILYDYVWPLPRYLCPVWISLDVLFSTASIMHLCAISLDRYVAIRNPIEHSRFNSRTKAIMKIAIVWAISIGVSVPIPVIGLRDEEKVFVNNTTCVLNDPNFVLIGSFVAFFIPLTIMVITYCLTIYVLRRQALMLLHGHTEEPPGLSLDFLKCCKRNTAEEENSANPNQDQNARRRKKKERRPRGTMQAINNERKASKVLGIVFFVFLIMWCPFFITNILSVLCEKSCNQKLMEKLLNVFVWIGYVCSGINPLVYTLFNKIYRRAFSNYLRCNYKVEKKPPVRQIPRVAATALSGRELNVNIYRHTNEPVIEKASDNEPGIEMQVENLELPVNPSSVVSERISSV

As for `CCCN(CCCCNc1ccc([N+](=O)[O-])c2nonc12)C1COc2cccc(OC)c2C1` (stereo not given), the half-inhibitory concentration (IC50) in assay [1] amounted to 0.1 µM; in assay [2] it was 0.34 µM; in assay [3] it was 18 µM.
The like results for `CCCN(CCCCN1C(=O)c2ccccc2S1(=O)=O)C1COc2cccc(OC)c2C1` (stereo not given) [2-{4-[(5-Methoxy-chroman-3-yl)-propyl-amino]-butyl}-1,1-dioxo-1,2-dihydro-1lambda*6*-benzo[d]isothiazol-3-one; compound with oxalic acid] were, in that order, 0.001 µM, 1 µM and 10 µM.
The like results for `CCCN(CCCCN1C(=O)CC2(CCCC2)CC1=O)C1COc2cccc(OC)c2C1` (stereo not given) [NSC_121851] were, in that order, 0.0002 µM, 5 µM and 0.01 µM.
The like results for `CCCN(CCCCN1C(=O)c2ccccc2C1=O)C1COc2cccc(OC)c2C1` (stereo not given) [2-{4-[(5-Methoxy-chroman-3-yl)-propyl-amino]-butyl}-isoindole-1,3-dione; compound with oxalic acid] were, in that order, 0.05 µM, 0.4 µM and 30 µM.
In the case of `CCCN(CCCCNC(=O)c1cc(=O)oc2c3c4c(cc12)CCCN4CCC3)C1COc2cccc(OC)c2C1` (stereo not given), the IC50 in assay [1] was determined as 0.0003 µM; in assay [2], 0.009 µM; in assay [3] it was 0.015 µM.
